Like-named read-outs stand apart in the source and are kept apart here.
How the values were obtained:
[1] = target: T1, human DGKα (Homo sapiens, UniProt P23743); test: DGKα LIPGLO assay (extruded liposome substrate), in vitro DGK inhibition; type: biochemical; details: read-out: DGKa LIPGLO IC50
T1 construct: TVMV protease cleavage site (C); Hexa-His (C); made in house; host or cells: Sf9 insect cells (baculovirus, Bac-to-Bac)

[2] = target: T2, human DGKζ (Homo sapiens, UniProt Q13574); test: DGKζ LIPGLO assay (extruded liposome substrate), in vitro DGK inhibition; type: biochemical; details: read-out: DGKz LIPGLO IC50
T2 construct: TVMV protease cleavage site (C); Hexa-His (C); made in house; host or cells: Sf9 insect cells (baculovirus, Bac-to-Bac)
T2 sequence (Q13574 with tags, fused parts or gaps isoform Q13574-4): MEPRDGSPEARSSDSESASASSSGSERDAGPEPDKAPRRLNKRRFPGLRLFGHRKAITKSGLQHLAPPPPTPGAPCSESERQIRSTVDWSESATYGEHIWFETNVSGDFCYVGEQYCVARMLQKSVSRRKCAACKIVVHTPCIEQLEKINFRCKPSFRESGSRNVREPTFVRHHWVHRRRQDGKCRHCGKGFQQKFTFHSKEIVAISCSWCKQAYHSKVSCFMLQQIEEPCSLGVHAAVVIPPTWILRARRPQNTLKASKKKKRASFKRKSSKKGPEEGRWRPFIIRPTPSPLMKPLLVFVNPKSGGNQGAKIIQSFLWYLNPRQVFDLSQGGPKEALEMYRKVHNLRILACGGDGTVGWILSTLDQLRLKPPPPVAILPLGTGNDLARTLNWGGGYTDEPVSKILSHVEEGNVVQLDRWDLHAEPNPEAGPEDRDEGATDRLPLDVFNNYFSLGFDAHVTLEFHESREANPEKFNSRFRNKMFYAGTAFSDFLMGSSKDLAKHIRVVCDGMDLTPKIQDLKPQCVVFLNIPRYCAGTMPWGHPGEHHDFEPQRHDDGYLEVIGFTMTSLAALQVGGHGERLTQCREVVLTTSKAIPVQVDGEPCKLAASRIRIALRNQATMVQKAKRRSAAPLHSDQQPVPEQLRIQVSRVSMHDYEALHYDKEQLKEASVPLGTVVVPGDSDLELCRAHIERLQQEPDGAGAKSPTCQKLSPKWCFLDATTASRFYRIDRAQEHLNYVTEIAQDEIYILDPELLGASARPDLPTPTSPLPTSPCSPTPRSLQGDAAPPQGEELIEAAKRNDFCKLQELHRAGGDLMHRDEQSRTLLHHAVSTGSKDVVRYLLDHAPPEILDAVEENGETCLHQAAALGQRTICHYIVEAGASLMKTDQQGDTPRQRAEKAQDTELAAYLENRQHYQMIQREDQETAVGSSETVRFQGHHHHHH

T1 sequence (P23743 with tags, fused parts or gaps): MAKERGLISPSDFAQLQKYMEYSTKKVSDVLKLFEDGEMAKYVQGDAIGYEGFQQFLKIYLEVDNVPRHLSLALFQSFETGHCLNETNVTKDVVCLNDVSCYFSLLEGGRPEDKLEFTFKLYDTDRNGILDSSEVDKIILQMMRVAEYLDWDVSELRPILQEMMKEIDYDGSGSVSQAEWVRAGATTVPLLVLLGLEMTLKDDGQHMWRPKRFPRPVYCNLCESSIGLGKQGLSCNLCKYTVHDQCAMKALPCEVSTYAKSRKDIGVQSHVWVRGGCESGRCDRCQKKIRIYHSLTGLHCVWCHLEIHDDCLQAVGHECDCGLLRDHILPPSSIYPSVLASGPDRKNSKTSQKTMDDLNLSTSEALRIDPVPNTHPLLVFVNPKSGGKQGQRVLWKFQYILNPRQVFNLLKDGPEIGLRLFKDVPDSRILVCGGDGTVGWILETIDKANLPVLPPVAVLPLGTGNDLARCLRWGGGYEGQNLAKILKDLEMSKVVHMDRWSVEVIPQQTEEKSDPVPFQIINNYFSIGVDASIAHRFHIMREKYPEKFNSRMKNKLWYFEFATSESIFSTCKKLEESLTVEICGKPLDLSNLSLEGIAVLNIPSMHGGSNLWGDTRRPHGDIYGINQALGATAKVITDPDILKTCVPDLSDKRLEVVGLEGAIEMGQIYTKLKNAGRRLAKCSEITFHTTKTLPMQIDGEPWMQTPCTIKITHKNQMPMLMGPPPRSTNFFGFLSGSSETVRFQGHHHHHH

Structure (SMILES)	IC50 ([1]; liposome (LIPGLO) assay) [µM]	IC50 ([2]; liposome (LIPGLO) assay) [µM]	IC50 ([1]; DGKα liposome (LIPGLO) assay) [µM]	IC50 ([2]; DGKζ liposome (LIPGLO) assay) [µM]
C[C@@H]1CN(c2cc(=O)n(C)c3ccc(C#N)nc23)[C@@H](C)CN1Cc1nnc(C(F)(F)F)o1 [Example 1436]	11	5.6		
Cc1ccc(CCN2C[C@H](C)N(c3cc(=O)n(C)c4ccc(C#N)nc34)C[C@H]2C)cc1 [Example 633]	6.7	10		
CC[C@@H]1CN(c2cc(=O)n(C)c3ccc(C#N)nc23)[C@@H](C)CN1C(C)c1c(F)cc(F)cc1F (single isomer, unassigned) [Example 1089]	0.51	0.12		
CC[C@@H]1CN(c2cc(=O)n(C)c3ccc(C#N)nc23)[C@@H](C)CN1C(C)c1ccc(OC(F)(F)F)cc1F (single isomer, unassigned) [Example 1095]	0.027	0.018		
CC[C@@H]1CN(c2cc(=O)n(C)c3ccc(C#N)nc23)[C@@H](C)CN1C(C)c1ccc(F)cc1F (single isomer, unassigned) [Example 1088]	3.4	4.9		
Cn1c(=O)cc(N2CC(C3CC3)N(C(c3ccc(F)cc3)c3ccc(F)cc3)CC2C2CC2)c2nc(C#N)ccc21 (single isomer, unassigned) [Example 153, 8-(4-(bis(4-fluorophenyl)methyl)-2,5-dicyclopropylpiperazin-1-yl)-5-methyl-6-oxo-5,6-dihydro-1,5-naphthyridine-2-carbonitrile]	240	240		
C[C@@H]1CN(c2cc(=O)n(C)c3ccc(C#N)nc23)[C@@H](C)CN1C(c1cccc(F)c1)c1ccc(C(F)(F)F)cn1 (single isomer, unassigned) [Example 371]	3	2.1		
CC[C@@H]1CN(c2cc(=O)n(C)c3ccc(C#N)nc23)[C@@H](C)CN1C(c1cccc(F)c1)c1ccc(F)cn1 (single isomer, unassigned) [Example 1108]	0.031	0.09		
Cc1nc2c(C(C)N3C[C@H](C)N(c4cc(=O)n(C)c5ccc(C#N)nc45)C[C@H]3C)cccc2o1 (single isomer, unassigned) [Example 1260]	54	0.086		
Cc1cc(OC(F)(F)F)ccc1CN1C[C@H](C)N(c2cc(=O)n(C)c3ccc(C#N)nc23)C[C@H]1C [Example 608]	1.6	9.2		
C[C@@H]1CN(c2cc(=O)n(C)c3ccc(C#N)nc23)[C@@H](C)CN1Cc1cccc(N(C)C)c1 [Example 573]	4.3	0.64		
CC[C@H]1CN(C(c2ccc(F)cc2)c2nc(C3CC3)cs2)[C@H](CC)CN1c1cc(=O)n(C)c2ccc(C#N)nc12 (stereo partly drawn) [Example 1066]	0.028	0.03		
C[C@@H]1CN(c2cc(=O)n(C)c3ccc(C#N)nc23)[C@@H](C)CN1C(c1ccc(F)cc1)C1CCS(=O)(=O)CC1 (single isomer, unassigned) [Example 1301]	91	3.6		
COCC(c1ccc(F)cc1)N1C[C@H](C)N(c2cc(=O)n(C)c3ccc(C#N)nc23)C[C@H]1C (single isomer, unassigned) [Example 560]	0.58	2.9		
CC(=O)N1CCOc2c(CN3C[C@H](C)N(c4cc(=O)n(C)c5ccc(C#N)nc45)C[C@H]3C)cccc21 [Example 631]	1.4	4.3		
C[C@@H]1CN(c2cc(=O)n(C)c3ccc(C#N)nc23)[C@@H](C)CN1CCc1ccccc1 [Example 632]	6.5	11		
COC[C@@H]1CN(c2cc(=O)n(C)c3ccc(C#N)nc23)[C@@H](C)CN1C(C)c1ccc(OC(F)(F)F)cc1 (single isomer, unassigned) [Example 1163]	10	7.5		
CC[C@@H]1CN(c2cc(=O)n(C)c3ccc(C#N)nc23)[C@@H](C)CN1C(C)c1ccc(F)cc1F (single isomer, unassigned) [Example 1087]	0.072	0.086		
CC(c1cc(OC(F)F)ccc1F)N1C[C@H](C)N(c2cc(=O)n(C)c3ccc(C#N)nc23)C[C@H]1C (single isomer, unassigned) [Example 1228]	5.4	3		
Cn1c(=O)cc(N2CCN(Cc3ccc(F)cc3Cl)C(COC(F)F)C2)c2nc(C#N)ccc21 (single isomer, unassigned) [Example 1184, 8-(4-(2-chloro-4-fluorobenzyl)-3-((difluoromethoxy)methyl)piperazin-1-yl)-5-methyl-6-oxo-5,6-dihydro-1,5-naphthyridine-2-carbonitrile]	110	11		
CC(c1ccc(OC(F)(F)F)cc1)N1C[C@@H](C)N(c2cc(=O)n(C)c3ccc(C#N)nc23)C[C@@H]1CO (single isomer, unassigned) [Example 1181]	77	2.5		

Continued, values first:

IC50 ([1]; liposome (LIPGLO) assay) [µM]	IC50 ([2]; liposome (LIPGLO) assay) [µM]	IC50 ([1]; DGKα liposome (LIPGLO) assay) [µM]	IC50 ([2]; DGKζ liposome (LIPGLO) assay) [µM]	Structure (SMILES)
24	150			Cn1c(=O)c(C#N)c(N2CCN(C(c3ccc(F)cc3)c3ccc(F)cc3)C(C(=O)O)C2)c2nc(Br)ccc21 (stereo not drawn) [Example 52, 1-(bis(4-fluorophenyl)methyl)-4-(6-bromo-3-cyano-1-methyl-2-oxo-1,2-dihydro-1,5-naphthyridin-4-yl)piperazine-2-carboxylic acid]
18	18			Cc1ccc(C(c2ccc(C)cc2)N2C[C@H](C)N(c3cc(=O)n(C)c4ccc(C#N)nc34)C[C@H]2CO)cc1 [Example 1150, 8-((2S,5S)-4-(di-p-tolylmethyl)-5-(hydroxymethyl)-2-methylpiperazin-1-yl)-5-methyl-6-oxo-5,6-dihydro-1,5-naphthyridine-2-carbonitrile]
		0.051	0.53	C[C@@H]1CN(c2cc(=O)n(C)c3ccc(C#N)nc23)[C@@H](C)CN1C(c1ccc(F)cc1)c1noc(C(C)(C)C)n1 (single isomer, unassigned) [Example 764]
		23	3.2	Cc1ccc(C(c2ccc(Cl)cc2)N2C[C@H](C)N(c3c(C#N)c(=O)n(C)c4ccc(C#N)nc34)C[C@H]2C)cc1 (stereo partly drawn) [Example 825]
		0.34	1.1	Cc1ccc(C(c2ccc(Cl)cn2)N2CCN(c3c(C#N)c(=O)n(C)c4ccc(C#N)nc34)C[C@H]2C)cc1 (single isomer, unassigned) [Example 937]
		8.6	5.4	C[C@@H]1CN(c2c(C#N)c(=O)n(C)c3ccc(C#N)nc23)CCN1C(c1ccc(F)cc1)c1cccc2c1OC(C)(C)C2 (single isomer, unassigned) [Example 934]
		200	83	CC(c1ccc(C(=O)O)cc1)N1C[C@H](C)N(c2c(C#N)c(=O)n(C)c3ccc(C#N)nc23)C[C@H]1C (stereo partly drawn) [Example 787]
23	4			C[C@@H]1CN(c2cc(=O)n(C)c3ccc(C#N)nc23)[C@@H](C)CN1C(c1ccc(Cl)cc1)c1ccc2c(c1)OC(F)(F)O2 (single isomer, unassigned) [Example 656]
		2.1	0.58	Cc1ccc(C(c2cccc(F)c2)N2CCN(c3c(C#N)c(=O)n(C)c4ccc(C#N)nc34)C[C@H]2C)nc1 (single isomer, unassigned) [Example 912]
0.84	0.12			C[C@@H]1CN(c2cc(=O)n(C)c3ccc(C#N)nc23)[C@@H](C)CN1C(c1ccc(F)cc1)c1cccc2ccnn12 (single isomer, unassigned) [Example 694]
		3.4	16	C[C@@H]1CN(c2c(C#N)c(=O)n(C)c3ccc(C#N)nc23)CCN1C(c1ccc(Cl)cc1)c1ncccc1F (stereo partly drawn) [Example 909]
0.82	9.3			C[C@@H]1CN(c2cc(=O)n(C)c3ccc(C#N)nc23)[C@@H](C)CN1C(c1ccc(F)cc1)c1ccncn1 (single isomer, unassigned) [Example 402]
8.5	31			Cc1ncc(C(c2ccc(Cl)cc2)N2CCN(c3c(C#N)c(=O)n(C)c4ccc(C#N)nc34)C[C@H]2C)cn1 (stereo partly drawn) [Example 314, 8-((3R)-4-((4-chlorophenyl)(2-methylpyrimidin-5-yl)methyl)-3-methylpiperazin-1-yl)-5-methyl-6-oxo-5,6-dihydro-1,5-naphthyridine-2,7-dicarbonitrile]
0.4	4.3			C[C@@H]1CN(c2cc(=O)n(C)c3ccc(C#N)nc23)[C@@H](C)CN1C(c1ccc(F)cc1)c1cnccn1 (single isomer, unassigned) [Example 674]
		0.96	60	CC(c1ccccn1)N1CCN(c2c(C#N)c(=O)n(C)c3ccc(C#N)nc23)C[C@H]1C (single isomer, unassigned) [Example 965]
12	2.9			C[C@@H]1CN(C(c2ccc(F)cc2)c2ccc(C#N)cc2)[C@@H](CO)CN1c1cc(=O)n(C)c2ccc(C#N)nc12 (single isomer, unassigned) [Example 1176]
		6.9	11	COC(=O)c1ccc(C(C)N2C[C@H](C)N(c3c(C#N)c(=O)n(C)c4ccc(C#N)nc34)C[C@H]2C)cc1 (single isomer, unassigned) [Example 793]
> 250	> 250			C[C@@H]1CN(c2cc(=O)n(C)c3ccc(C#N)nc23)[C@@H](C)CN1C(c1ccc(F)cc1)c1ccccc1N1CCOCC1 (single isomer, unassigned) [Example 665]
		0.33	5.6	C[C@@H]1CN(c2c(C#N)c(=O)n(C)c3ccc(C#N)nc23)[C@@H](C)CN1C(c1ccc(F)cc1)c1cscn1 (single isomer, unassigned) [Example 856]
		1.2	7	CC(c1ccc(Br)cc1)N1C[C@H](C)N(c2c(C#N)c(=O)n(C)c3ccc(C#N)nc23)C[C@H]1C (single isomer, unassigned) [Example 789]
2.3	4.6			C[C@@H]1CN(c2cc(=O)n(C)c3ccc(C#N)nc23)[C@@H](C)CN1C(c1ccc(F)cc1)c1cncc(F)c1 (single isomer, unassigned) [Example 386]

From patent publication US10669272B2, “Substituted naphthyridinone compounds useful as T cell activators” (BRISTOL-MYERS SQUIBB COMPANY, priority 2018, dated 2020)
